Assay results published in patent publication US20250084056A1, “SUBSTITUTED OXOISOINDOLINYL PIPERIDINE-2,6-DIONE COMPOUNDS” (BRISTOL-MYERS SQUIBB COMPANY, priority 2023, published 2025).

Legend:
Type in all cases: cell-based
[1] = system: Phospho-Rb (Ser807/811); assay: Phospho-Retinoblastoma (pRB) Cellular Assay; conditions: Homo sapiens, OVCAR-3, NIH OVCAR3 cells, 24 hours; for IC50: concentration giving 50% response; for Emax: maximum response, reference compound at 10 μM = 100%, read-out: pRB Ymax
Method in brief: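 OVCAR3 cells seeded overnight, then dosed with serial dilutions for 24 h at 37° C. Lysed with kit mix plus phosphatase inhibitor, ≥4 h at room temperature, read on EnVision; 100% response set by reference compound at 10 μM, giving IC50 and Ymax.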

[2] = target: GSPT1 (Homo sapiens, UniProt P15170+Q96SW2); assay: GSPT1 Cellular Degradation Assay (DF15-GSPT1-ePL); design: expressed in transfected cells; conditions: DF15-GSPT1-ePL cells, 20 hours
Chain of GSPT1 (P15170 whole entry, the tested form may be a part): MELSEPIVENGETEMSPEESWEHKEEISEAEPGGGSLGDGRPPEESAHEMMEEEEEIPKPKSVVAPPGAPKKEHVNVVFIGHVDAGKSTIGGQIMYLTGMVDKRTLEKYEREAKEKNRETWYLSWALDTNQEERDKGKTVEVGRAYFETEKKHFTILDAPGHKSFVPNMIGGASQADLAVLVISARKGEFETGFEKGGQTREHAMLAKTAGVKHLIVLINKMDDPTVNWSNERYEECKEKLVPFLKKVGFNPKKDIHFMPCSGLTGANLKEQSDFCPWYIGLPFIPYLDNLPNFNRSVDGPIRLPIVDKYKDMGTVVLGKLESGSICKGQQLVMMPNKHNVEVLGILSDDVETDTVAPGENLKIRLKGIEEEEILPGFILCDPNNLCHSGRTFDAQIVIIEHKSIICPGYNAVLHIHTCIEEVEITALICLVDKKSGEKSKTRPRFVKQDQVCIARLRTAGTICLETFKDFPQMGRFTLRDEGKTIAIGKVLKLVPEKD
Chain of GSPT1 (Q96SW2 whole entry, the tested form may be a part): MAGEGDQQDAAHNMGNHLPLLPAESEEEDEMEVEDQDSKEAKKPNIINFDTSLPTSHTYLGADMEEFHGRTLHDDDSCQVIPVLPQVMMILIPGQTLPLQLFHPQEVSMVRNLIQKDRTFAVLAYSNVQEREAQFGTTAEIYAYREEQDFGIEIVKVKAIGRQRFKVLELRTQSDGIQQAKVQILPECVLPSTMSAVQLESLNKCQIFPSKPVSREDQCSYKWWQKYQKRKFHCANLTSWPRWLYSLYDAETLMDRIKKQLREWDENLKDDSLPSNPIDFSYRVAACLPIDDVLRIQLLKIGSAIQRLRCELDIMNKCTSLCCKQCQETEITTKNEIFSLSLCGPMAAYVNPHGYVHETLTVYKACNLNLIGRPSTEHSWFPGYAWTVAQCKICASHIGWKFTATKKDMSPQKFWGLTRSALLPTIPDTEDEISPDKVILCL
Chain of GSPT1 (Q16531 whole entry partner, the tested form may be a part): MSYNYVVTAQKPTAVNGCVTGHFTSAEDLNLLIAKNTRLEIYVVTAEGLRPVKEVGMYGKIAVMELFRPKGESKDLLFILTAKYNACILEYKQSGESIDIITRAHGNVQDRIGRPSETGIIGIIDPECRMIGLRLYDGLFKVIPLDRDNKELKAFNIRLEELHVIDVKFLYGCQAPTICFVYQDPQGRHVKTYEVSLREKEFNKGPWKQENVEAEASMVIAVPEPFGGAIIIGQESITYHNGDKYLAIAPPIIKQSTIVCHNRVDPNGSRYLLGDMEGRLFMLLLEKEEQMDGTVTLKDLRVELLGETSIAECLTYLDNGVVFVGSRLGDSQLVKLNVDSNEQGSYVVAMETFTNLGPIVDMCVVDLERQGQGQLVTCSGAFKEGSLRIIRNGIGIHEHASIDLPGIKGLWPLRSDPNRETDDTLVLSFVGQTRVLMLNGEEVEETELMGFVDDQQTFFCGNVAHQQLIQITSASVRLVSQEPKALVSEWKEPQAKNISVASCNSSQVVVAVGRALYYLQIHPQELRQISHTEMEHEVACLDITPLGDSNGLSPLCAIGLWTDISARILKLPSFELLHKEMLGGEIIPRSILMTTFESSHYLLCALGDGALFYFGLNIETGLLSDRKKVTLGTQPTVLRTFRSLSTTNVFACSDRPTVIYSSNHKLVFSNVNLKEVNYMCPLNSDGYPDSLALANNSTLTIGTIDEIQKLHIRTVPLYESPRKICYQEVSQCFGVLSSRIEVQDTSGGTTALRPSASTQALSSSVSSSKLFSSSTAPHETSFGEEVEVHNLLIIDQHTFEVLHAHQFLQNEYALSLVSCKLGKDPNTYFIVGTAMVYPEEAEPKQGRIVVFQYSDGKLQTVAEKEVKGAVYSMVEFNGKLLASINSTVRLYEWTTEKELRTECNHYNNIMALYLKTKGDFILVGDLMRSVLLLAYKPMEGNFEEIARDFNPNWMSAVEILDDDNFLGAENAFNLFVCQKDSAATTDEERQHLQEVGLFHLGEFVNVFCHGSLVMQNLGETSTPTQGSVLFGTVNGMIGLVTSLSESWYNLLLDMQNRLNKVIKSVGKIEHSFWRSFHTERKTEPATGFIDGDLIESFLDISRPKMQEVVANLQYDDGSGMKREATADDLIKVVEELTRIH
Method in brief: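 Human DF15 cells co-expressing a GSPT1–ePL fusion were treated with compound in RPMI 1640/10% FBS for 20 h at 37 °C. GSPT1 level was read by enzyme-fragment-complementation luminescence after 60 min with detection reagent. The reference degrader at […] defined 75% response; DC50 and Dmax were reported.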

[3] = target: Cyclin E1 (Homo sapiens, UniProt P24864+Q96SW2); assay: Cyclin E1 Cellular Degradation Assay (MSD); design: endogenous in cells; host or cells: OVCAR3; conditions: for DC50 / Dmax: Cyclin E1 cellular degradation; for Dmax: maximum degradation; for Ratio of GSPT1 DC50/Cyclin E1 DC50: selectivity for degradation of Cyclin E1 over GSPT1
Chain of Cyclin E1 (P24864 whole entry): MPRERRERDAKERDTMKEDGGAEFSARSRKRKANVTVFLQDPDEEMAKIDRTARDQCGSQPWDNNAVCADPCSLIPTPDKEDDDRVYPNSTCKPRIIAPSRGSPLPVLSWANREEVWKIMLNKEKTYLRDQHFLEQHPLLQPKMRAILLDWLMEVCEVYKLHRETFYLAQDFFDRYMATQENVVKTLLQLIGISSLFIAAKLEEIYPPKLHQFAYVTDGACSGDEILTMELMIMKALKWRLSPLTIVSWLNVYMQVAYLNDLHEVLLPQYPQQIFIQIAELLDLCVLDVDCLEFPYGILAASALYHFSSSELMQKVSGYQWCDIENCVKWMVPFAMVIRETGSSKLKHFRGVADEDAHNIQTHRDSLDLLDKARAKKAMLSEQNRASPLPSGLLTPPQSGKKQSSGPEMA
Chain of Cyclin E1 (Q96SW2 whole entry): as the sequence (Q96SW2 whole entry, the tested form may be a part) above
Chain of Cyclin E1 (Q16531 whole entry partner): as the sequence (Q16531 whole entry partner, the tested form may be a part) above
Method in brief: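 OVCAR3 cells treated with compound for 24 h at 37 °C, lysed, and cyclin E1 measured by MSD sandwich immunoassay (rabbit capture, mouse detection anti-CCNE1). Reference degrader at […] defined 110% response; DC50 and Dmax derived from response.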

Structure (SMILES) | IC50 [1] | Emax [1] | DC50 [2] | Dmax [2] | DC50 [3] | Dmax [3] | Ratio of GSPT1 DC50/Cyclin E1 DC50 [3]
COc1c(COC(=O)Nc2ccc(Oc3ccc(F)c(Cl)c3)cc2F)ccc2c1C(=O)N(C1CCC(=O)NC1=O)C2 (centres unmarked) [Example 98, [2-(2,6-dioxopiperidin-3-yl)-4-methoxy-3-oxo-2,3-dihydro-1H-isoindol-5-yl]methyl N-[4-(3-chloro-4-fluorophenoxy)-2-fluorophenyl]carbamate] | 0.092 µM | 106% | > 14 µM | 28% | 0.097 µM | 109% | >144
COc1cc(Oc2cc(F)c(F)cc2C)ccc1NC(=O)OCc1ccc2c(c1OC)C(=O)N(C1CCC(=O)NC1=O)C2 (centres unmarked) [Example 73, [2-(2,6-dioxopiperidin-3-yl)-4-methoxy-3-oxo-2,3-dihydro-1H-isoindol-5-yl]methyl N-[4-(4,5-difluoro-2-methylphenoxy)-2-methoxyphenyl]carbamate] | 0.272 µM | 118% | > 14 µM | 27% | 0.312 µM | 102% | >45
O=C1CCC(N2Cc3ccc(COC(=O)Nc4ccc(Oc5ccc(F)c(F)c5)cc4)c(OC4CCCOCC4)c3C2=O)C(=O)N1 (centres unmarked) [Example 170, [2-(2,6-dioxopiperidin-3-yl)-4-(oxepan-4-yloxy)-3-oxo-2,3-dihydro-1H-isoindol-5-yl]methyl N-[4-(3,4-difluorophenoxy)phenyl]carbamate] | 0.052 µM | 142% | > 14 µM | 0% | 0.015 µM | 109% | >930
COCCOc1c(COC(=O)Nc2ccc(Oc3ccc(F)c(F)c3)cc2F)ccc2c1C(=O)N(C1CCC(=O)NC1=O)C2 (centres unmarked) [Example 169, [2-(2,6-dioxopiperidin-3-yl)-4-(2-methoxyethoxy)-3-oxo-2,3-dihydro-1H-isoindol-5-yl]methyl N-[4-(3,4-difluorophenoxy)-2-fluorophenyl]carbamate] | 0.036 µM | 120% | > 14 µM | 7% | 0.088 µM | 104% | >159
COc1c(COC(=O)Nc2ccc(Oc3ccc(F)c(Cl)c3)cc2)ccc2c1C(=O)N(C1CCC(=O)NC1=O)C2 (centres unmarked) [Example 14, [2-(2,6-dioxopiperidin-3-yl)-4-methoxy-3-oxo-2,3-dihydro-1H-isoindol-5-yl]methyl N-[4-(3-chloro-4-fluorophenoxy)phenyl]carbamate] | 0.363 µM | 96% | > 14 µM | 43% | 0.059 µM | 108% | >239
CCN(C)C(=O)COc1c(COC(=O)Nc2ccc(Oc3ccc(F)c(F)c3)cc2)ccc2c1C(=O)N(C1CCC(=O)NC1=O)C2 (centres unmarked) [Example 177, [2-(2,6-dioxopiperidin-3-yl)-4-{[ethyl(methyl)carbamoyl]methoxy}-3-oxo-2,3-dihydro-1H-isoindol-5-yl]methyl N-[4-(3,4-difluorophenoxy)phenyl]carbamate] | 0.161 µM | 126% | > 14 µM | 0% | 0.299 µM | 108% | >47
COc1c(COC(=O)Nc2ccc(Oc3cccc(Cl)c3)cc2)ccc2c1C(=O)N(C1CCC(=O)NC1=O)C2 (centres unmarked) [Example 3, [2-(2,6-dioxopiperidin-3-yl)-4-methoxy-3-oxo-2,3-dihydro-1H-isoindol-5-yl]methyl N-[4-(3-chlorophenoxy)phenyl]carbamate] | 0.103 µM | 120% | > 14 µM | 34% | 0.091 µM | 112% | >153
COc1c(COC(=O)Nc2ccc(Oc3ccc(F)cc3)cc2)ccc2c1C(=O)N(C1CCC(=O)NC1=O)C2 (centres unmarked) [Example 84, [2-(2,6-dioxopiperidin-3-yl)-4-methoxy-3-oxo-2,3-dihydro-1H-isoindol-5-yl]methyl N-[4-(4-fluorophenoxy)phenyl]carbamate] | 0.254 µM | 95% | > 14 µM | 22% | 0.094 µM | 108% | >149
COc1c(COC(=O)Nc2ccc(Oc3ccc(F)c(F)c3)cc2)ccc2c1C(=O)N(C1CCC(=O)NC1=O)C2 (centres unmarked) [Example 1, [2-(2,6-dioxopiperidin-3-yl)-4-methoxy-3-oxo-2,3-dihydro-1H-isoindol-5-yl]methyl N-[4-(3,4-difluorophenoxy)phenyl]carbamate] | 0.133 µM | 104% | > 14 µM | 27% | 0.199 µM | 110% | >70
COc1c(COC(=O)Nc2ccc(Oc3cc(F)c(F)cc3F)cc2F)ccc2c1C(=O)N(C1CCC(=O)NC1=O)C2 (centres unmarked) [Example 43, [2-(2,6-dioxopiperidin-3-yl)-4-methoxy-3-oxo-2,3-dihydro-1H-isoindol-5-yl]methyl N-[2-fluoro-4-(2,4,5-trifluorophenoxy)phenyl]carbamate] | 0.131 µM | 121% | > 14 µM | 33% | 0.165 µM | 111% | >85
COc1c(COC(=O)Nc2ccc(Oc3ccccc3C(F)F)cc2F)ccc2c1C(=O)N(C1CCC(=O)NC1=O)C2 (centres unmarked) [Example 86, [2-(2,6-dioxopiperidin-3-yl)-4-methoxy-3-oxo-2,3-dihydro-1H-isoindol-5-yl]methyl N-{4-[2-(difluoromethyl)phenoxy]-2-fluorophenyl}carbamate] | 0.176 µM | 112% | > 14 µM | 33% | 0.205 µM | 107% | >68
COc1cc(Oc2cc(F)c(F)cc2F)ccc1NC(=O)OCc1ccc2c(c1OC)C(=O)N(C1CCC(=O)NC1=O)C2 (centres unmarked) [Example 34, [2-(2,6-dioxopiperidin-3-yl)-4-methoxy-3-oxo-2,3-dihydro-1H-isoindol-5-yl]methyl N-[2-methoxy-4-(2,4,5-trifluorophenoxy)phenyl]carbamate] | 0.077 µM | 122% | > 14 µM | 19% | 0.194 µM | 107% | >72
CC(C)Oc1c(COC(=O)Nc2ccc(Oc3cccc(Cl)c3)cc2)ccc2c1C(=O)N(C1CCC(=O)NC1=O)C2 (centres unmarked) [Example 58, [2-(2,6-dioxopiperidin-3-yl)-3-oxo-4-(propan-2-yloxy)-2,3-dihydro-1H-isoindol-5-yl]methyl N-[4-(3-chlorophenoxy)phenyl]carbamate] | 0.298 µM | 109% | > 14 µM | 48% | 0.139 µM | 104% | >100
COc1ccccc1Oc1ccc(NC(=O)OCc2ccc3c(c2OC)C(=O)N(C2CCC(=O)NC2=O)C3)cc1 (centres unmarked) [Example 31, [2-(2,6-dioxopiperidin-3-yl)-4-methoxy-3-oxo-2,3-dihydro-1H-isoindol-5-yl]methyl N-[4-(2-methoxyphenoxy)phenyl]carbamate] | 2.31 µM | 81% | 6.6 µM | 64% | 0.735 µM | 83% | 9
CCOc1c(COC(=O)Nc2ccc(Oc3ccccc3)cc2)ccc2c1C(=O)N(C1CCC(=O)NC1=O)C2 (centres unmarked) [Example 52, [2-(2,6-dioxopiperidin-3-yl)-4-ethoxy-3-oxo-2,3-dihydro-1H-isoindol-5-yl]methyl N-(4-phenoxyphenyl)carbamate] | 0.081 µM | 111% | > 14 µM | 13% | 0.134 µM | 107% | >105
COc1c(COC(=O)Nc2ccc(Oc3ccc4sccc4c3)cc2)ccc2c1C(=O)N(C1CCC(=O)NC1=O)C2 (centres unmarked) [Example 114, [2-(2,6-dioxopiperidin-3-yl)-4-methoxy-3-oxo-2,3-dihydro-1H-isoindol-5-yl]methyl N-[4-(1-benzothiophen-5-yloxy)phenyl]carbamate] | 0.64 µM | 110% | > 14 µM | 29% | 0.282 µM | 106% | >50
CC(C)COc1c(COC(=O)Nc2ccc(Oc3ccc(F)c(F)c3)cc2)ccc2c1C(=O)N(C1CCC(=O)NC1=O)C2 (centres unmarked) [Example 138, [2-(2,6-dioxopiperidin-3-yl)-4-(2-methylpropoxy)-3-oxo-2,3-dihydro-1H-isoindol-5-yl]methyl N-[4-(3,4-difluorophenoxy)phenyl]carbamate] | 0.045 µM | 120% | > 14 µM | 9% | 0.173 µM | 108% | >81
